From patent publication US11370761B2, “Voltage-dependent T-type calcium channel inhibitor” (Nippon Chemiphar Co., Ltd., priority 2017, dated 2022) come the findings set out here.

For assay [1], the target named is T1, human Cav3.2 channel (Homo sapiens, UniProt O95180).
T1 construct: expressed in transfected cells
Briefly: Intracellular calcium concentration measurement in human Cav3.2 channel expressing stable cell line (Pharmacological Test 1). Type of assay: cell-based. Conditions: HEK293 cells stably expressing human Cav3.2, Fluo-4 AM fluorescence, KCl stimulation; read-out: Cav3.2 channel inhibitory action. The source says: (1) Construction of Human Cav3.2 Channel Expressing Stable Cell Line
A sequence in which a HindIII site and a kozak sequence (GCCACC) was provided on a 5′ side of a human Cav3.2 channel open reading frame (ORF) gene and a KpnI site was provided on a 3′ side thereof was incorporated into pcDNA3.1(+) (Thermo Fisher Scientific #V790-20), and the resultant was transfected into a HEK293 cell (ATCC No. CRL-1573) according to a protocol of FuGENE (registered trademark) HD Transfection Reagent (Promega #E2311).
(2) Method of Measuring Intracellular Calcium Concentration
The human Cav3.2 channel expressing stable cell line prepared by the test method (1) was seeded in a 96-well plate using a Dulbecco's modified Eagle's medium (DMEM medium) containing 10% fetal bovine serum (FBS), followed by culturing 37° C. for 48 hours under a 5% CO2 condition. Thereafter, the medium was removed, and each well washed with an A buffer was treated with 80 μL of a fluorescent dye solution containing a liquid mixture of 22 μg of a calcium fluorescent indicator Fluo-4 AM (Dojindo Molecular Technologies, Inc., #F311), 20 μL of dimethyl sulfoxide (DMSO), 1 μL of 10% Pluronic F-127 (Thermo Fisher Scientific #P6866), and 4 mL of the A buffer. After being left to stand for 45 minutes at room temperature under a light shielding condition, the cells were washed with a B buffer. In DMSO having the same final concentration as the test compound as a negative control, and the test compound dissolved in DMSO to have a final concentration of 0.1%, each test compound concentration solution containing the B buffer was added to each well. The cells were left to stand for additional 15 minutes at room temperature under a light shielding condition, and were measured using microplate reader EnVision (PerkinElmer Co., Ltd.) by the following method. First, after measuring background fluorescence in each well, an ionophore was added, and baseline fluorescence was measured. Thereafter, B buffer containing added KCl at a concentration of 83.8 mM was added to each well, and an increase in fluorescence due to calcium influx caused by the stimulation was measured for 10 seconds. Inhibition percentage was calculated from the maximum fluorescence increase value from the baseline, and an IC50 value was calculated by plotting a logarithmic value of the test compound concentration and inhibition activity. The measurement was performed by observing fluorescence of 510 nm emitted when the cells were irradiated with excitation light of 485 nm.
A buffer: 140 mM NaCl, 5 mM KCl, 1 mM MgCl2, 0.5 mM CaCl2, 10 mM Glucose, 10 mM HEPES, pH 7.3
B buffer: potassium equilibrium potential: −92 mV
For orientation: A change in cytosolic calcium serves as a functional read-out for many receptors and channels.

For assay [2], the target named is T1, human Cav3.2 channel. Briefly: Electrophysiological evaluation, automated whole-cell patch clamp of Cav3.2 channel current (Pharmacological Test 2). Type of assay: cell-based. Conditions: for inhibition at 0.3 µM: read-out: Cav3.2 channel current inhibition rate in test compound of 0.3 μM (holding potential of −80 mV) (%); for inhibition at 3 µM: 3 μM test compound, holding potential −100 mV, read-out: Cav3.2 channel current inhibition rate in test compound of 3 μM (holding potential of −100 mV) (%). As to the method: The human Cav3.2 channel expressing stable cell line prepared by the test method (1) of Example 36 was seeded in a 10-cm dish using a DMEM medium containing 10% FBS, followed by culturing 37° C. for 24 hours under a 5% CO2 condition. The cells were detached using Accutase, and suspended in ice-cooled extracellular fluid for use. A Cav3.2 channel current was measured using an automated patch clamp system (Port-a-Patch; Nanion Technologies, EPC-10; HEKA Elektronik GmbH, Patchmaster; HEKA Elektronik GmbH) and buffers shown below, by a whole-cell patch-clamp method. The measurement of the Cav3.2 channel current was performed at room temperature, a measurement condition was a holding potential of −80 mV, a depolarization potential was −20 mV, a depolarization time was 100 msec, and a depolarization frequency was 10 sec. The Cav3.2 channel current was a peak value of an inward current observed at the time of depolarization to −20 mV.
The test compound was obtained by diluting a DMSO solution 1000 times with extracellular fluid to prepare a solution having a target concentration. The test compound was applied using an external perfusion system (Nanion Technologies) until the Cav3.2 channel current was stabilized, and a maximum of five concentrations from the low concentration side were cumulatively applied. An inhibition rate of the test compound was calculated from a change rate between a current value immediately before application of the test compound and the Cav3.2 channel current after application of the test compound (in a condition of holding potential of −80 mV, a concentration of the test compound was 0.3 μM, and in a condition of holding potential of −100 mV, a concentration of the test compound was 3 μM).
Extracellular fluid: 135 mM NaCl, 4 mM KCl, 1 mM MgCl2, 5 mM CaCl2, 5 mM D-Glucose, 10 mM HEPES, pH 7.4
Electrode internal fluid: 10 mM NaCl, 10 mM HEPES, 50 mM CsCl, 60 mM Cs-Fluoride, 20 mM EGTA, pH 7.2
(Patch clamp records ionic current or voltage across a cell membrane.)

For assay [3], the system named is mouse partial sciatic nerve ligation (PSNL) model. Briefly: Mechanical allodynia in mouse partial sciatic nerve ligation (PSNL) model, von Frey filament test (Pharmacological Test 3). The class given is in vivo. Particulars: 30 mg/kg orally administered. As to the method: A mouse PSNL model was prepared according to a method of Seltzer et al. A mouse was anesthetized by inhalation with isoflurane. A femoral region of the mouse was shaved and disinfected with isodine. Skin on a femur of the mouse was incised, fascia just below the skin was cut off, and muscle heads of musculus biceps femoris were divided. After confirmation of sciatic nerves just below the muscle, and the sciatic nerves were separated without damage. ½ to ⅓ of the sciatic nerve was penetrated by a needle with 8-0 silk and ligated. The skin was sutured and the mouse was reared for about 7 days. In surgery of a sham control mouse, only confirmation of the sciatic nerves was performed and then the skin was sutured.
A pain threshold was measured after moving the mice to a cage for measurement and waiting for the exploratory behavior to disappear. Regarding the pain threshold (paw withdrawal filament ((g)), soles of the mice were stimulated with von Frey filaments (Sttoelting Co.: TOUCH-TEST SENSORY EVLUATOR) having different stimulation intensities, and the presence or absence of avoidance response was observed. A 50% threshold was calculated by an up down method with reference to a method of Chaplan et al. (Quantitative assessment of tactile allodynia in the rat paw. J neurosci Methods, 53, 1994, 55 to 63). […]

The mark [4] stands for this setting: 0.3 μM test compound, holding potential −80 mV, depolarization to −20 mV.

In general, inhibition refers to the drop in the measured response relative to a control, in per cent.

T1 sequence (O95180 whole entry): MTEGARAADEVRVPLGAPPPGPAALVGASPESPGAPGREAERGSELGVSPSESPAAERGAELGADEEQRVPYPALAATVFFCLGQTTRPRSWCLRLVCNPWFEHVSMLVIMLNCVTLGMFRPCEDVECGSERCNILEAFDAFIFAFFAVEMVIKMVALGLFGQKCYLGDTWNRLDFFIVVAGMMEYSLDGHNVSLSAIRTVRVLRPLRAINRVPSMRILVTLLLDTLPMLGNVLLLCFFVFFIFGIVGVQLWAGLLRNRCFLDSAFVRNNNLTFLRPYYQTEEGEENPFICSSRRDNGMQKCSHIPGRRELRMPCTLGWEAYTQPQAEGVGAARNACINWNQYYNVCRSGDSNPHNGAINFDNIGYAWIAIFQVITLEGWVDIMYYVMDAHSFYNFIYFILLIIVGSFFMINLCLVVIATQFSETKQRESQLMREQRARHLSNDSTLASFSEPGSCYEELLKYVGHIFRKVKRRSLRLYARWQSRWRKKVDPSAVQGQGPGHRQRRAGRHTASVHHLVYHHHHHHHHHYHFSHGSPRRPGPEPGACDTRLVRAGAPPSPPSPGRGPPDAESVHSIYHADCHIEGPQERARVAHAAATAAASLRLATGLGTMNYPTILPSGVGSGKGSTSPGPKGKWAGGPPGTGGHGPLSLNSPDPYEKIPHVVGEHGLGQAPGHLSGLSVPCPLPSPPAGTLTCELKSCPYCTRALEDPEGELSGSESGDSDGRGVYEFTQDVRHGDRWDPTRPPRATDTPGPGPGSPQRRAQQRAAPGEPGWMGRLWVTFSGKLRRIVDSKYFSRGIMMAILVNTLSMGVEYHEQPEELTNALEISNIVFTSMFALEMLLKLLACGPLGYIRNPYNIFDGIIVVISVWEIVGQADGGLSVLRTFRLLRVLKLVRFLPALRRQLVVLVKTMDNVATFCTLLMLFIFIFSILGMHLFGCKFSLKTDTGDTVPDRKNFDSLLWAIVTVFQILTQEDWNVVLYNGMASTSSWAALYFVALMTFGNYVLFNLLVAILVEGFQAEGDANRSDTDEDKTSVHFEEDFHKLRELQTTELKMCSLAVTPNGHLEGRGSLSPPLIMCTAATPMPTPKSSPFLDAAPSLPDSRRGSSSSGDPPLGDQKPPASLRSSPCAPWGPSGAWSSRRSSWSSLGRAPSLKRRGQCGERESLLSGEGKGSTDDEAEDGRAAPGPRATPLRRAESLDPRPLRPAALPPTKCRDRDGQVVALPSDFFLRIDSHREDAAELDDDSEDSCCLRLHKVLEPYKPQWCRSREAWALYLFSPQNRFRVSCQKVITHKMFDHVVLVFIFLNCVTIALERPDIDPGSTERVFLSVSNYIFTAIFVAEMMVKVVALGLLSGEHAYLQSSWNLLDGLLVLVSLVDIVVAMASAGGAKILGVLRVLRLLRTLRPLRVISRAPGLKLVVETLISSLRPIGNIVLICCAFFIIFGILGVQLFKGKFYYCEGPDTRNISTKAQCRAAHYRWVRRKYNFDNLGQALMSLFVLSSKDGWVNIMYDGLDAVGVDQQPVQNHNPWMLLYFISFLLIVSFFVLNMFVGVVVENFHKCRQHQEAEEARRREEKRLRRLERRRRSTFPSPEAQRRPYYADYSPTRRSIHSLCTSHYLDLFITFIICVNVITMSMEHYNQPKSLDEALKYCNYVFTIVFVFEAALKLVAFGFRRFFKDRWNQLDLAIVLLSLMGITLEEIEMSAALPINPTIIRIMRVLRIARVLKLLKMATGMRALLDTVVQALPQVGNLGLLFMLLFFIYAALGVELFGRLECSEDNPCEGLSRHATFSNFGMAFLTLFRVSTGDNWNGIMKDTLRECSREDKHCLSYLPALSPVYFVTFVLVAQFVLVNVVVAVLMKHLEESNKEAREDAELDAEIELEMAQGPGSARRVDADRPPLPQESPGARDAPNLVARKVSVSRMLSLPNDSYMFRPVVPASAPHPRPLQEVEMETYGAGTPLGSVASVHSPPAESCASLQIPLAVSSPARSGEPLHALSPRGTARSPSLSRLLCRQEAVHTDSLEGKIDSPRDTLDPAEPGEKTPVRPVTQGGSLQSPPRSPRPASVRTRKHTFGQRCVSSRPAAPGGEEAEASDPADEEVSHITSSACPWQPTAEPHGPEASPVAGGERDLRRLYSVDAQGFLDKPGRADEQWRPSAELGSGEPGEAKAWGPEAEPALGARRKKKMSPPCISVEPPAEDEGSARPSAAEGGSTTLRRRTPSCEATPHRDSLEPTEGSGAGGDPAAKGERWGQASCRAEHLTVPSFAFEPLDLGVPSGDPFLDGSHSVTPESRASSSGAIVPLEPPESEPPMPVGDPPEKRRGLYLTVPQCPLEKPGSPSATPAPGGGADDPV

With `CC(NC(=O)C1CC1c1nc2ccccc2[nH]1)C(=O)Nc1ccc(C(F)(F)F)cc1` (single isomer, unassigned) [Example 4A, Trans-2-(1H-benzo[d]imidazol-2-yl)-N-(1-oxo-1-((4-(trifluoromethyl)phenyl)amino)propan-2-yl) cyclopropane-1-carboxamide], the IC50 on human Cav3.2 channel [1] is 100 to 1000 nM. The inhibition at 0.3 µM on human Cav3.2 channel [2] (setting [4]) amounted to 43%. Besides, on human Cav3.2 channel [2], the inhibition at 3 µM came to 38%.

With `CC(NC(=O)C1CC1c1nc2ccccc2[nH]1)C(=O)Nc1ccc(C(F)(F)F)cc1` (single isomer, unassigned) [Example 4B, Trans-2-(1H-benzo[d]imidazol-2-yl)-N-(1-oxo-1-((4-(trifluoromethyl)phenyl)amino)propan-2-yl) cyclopropane-1-carboxamide], the IC50 at human Cav3.2 channel [1] is 100 to 1000 nM. At human Cav3.2 channel [2] (0.3 μM test compound, holding potential −80 mV, depolarization to −20 mV, 0.3 µM), the “Cav3.2 channel current inhibition rate in test compound of 0.3 μM (holding potential of −80 mV) (%)” value was found to be 23%.

On to `CC(NC(=O)C1CC1c1nc2ccccc2[nH]1)C(=O)Nc1ccc(C(F)(F)F)nc1` (single isomer, unassigned) [Example 5A, Trans-2-(1H-benzo[d]imidazol-2-yl)-N-(1-oxo-1-((6-(trifluoromethyl)pyridin-3-yl)amino)propan-2-yl) cyclopropane-1-carboxamide], for which, at human Cav3.2 channel [1], the IC50 was in the range of 100 to 1000 nM. The “mechanical allodynia (pain threshold, von Frey filament test) compared to the vehicle group” value in assay [3] was “statistically significantly suppressed”. Moreover, the inhibition at 0.3 µM at human Cav3.2 channel [2] (setting [4]) turned out to be 74%. The inhibition at 3 µM on human Cav3.2 channel [2] came out at 32%.

Take `O=C(NC1(C(=O)Nc2ccc(C(F)(F)F)cc2)CC1)[C@H]1C[C@@H]1c1nc2ccccc2[nH]1` [Example 26, 1-((1S, 2S)-2-(1H-Benzo[d]imidazol-2-yl)cyclopropane-1-carboxamido)-N-(4-(trifluoromethyl)phenyl) cyclopropane-1-carboxamide]: on human Cav3.2 channel [1], the IC50 was not above 100 nM. Moreover, in assay [3], the “mechanical allodynia (pain threshold, von Frey filament test) compared to the vehicle group” value is on record as “statistically significantly suppressed”. The inhibition at 0.3 µM on human Cav3.2 channel [2] (setting [4]) was found to be 84%.

Take `CC(NC(=O)C1CC1c1nc2ccccc2[nH]1)C(=O)Nc1cnc(Br)cn1` (single isomer, unassigned) [Example 18A, Trans-2-(1H-benzo[d]imidazol-2-yl)-N-(1-((5-bromopyrazin-2-yl)amino)-1-oxopropan-2-yl) cyclopropane-1-carboxamide]: the IC50 at human Cav3.2 channel [1] lay within 100 to 1000 nM. Also, at human Cav3.2 channel [2] (setting [4]), the inhibition at 0.3 µM worked out at 46%.

Consider `CC(NC(=O)C1CC1c1nc2ccccc2[nH]1)C(=O)Nc1ccc(C(C)(C)C)cc1` (single isomer, unassigned) [Example 7A, Trans-2-(1H-benzo[d]imidazol-2-yl)-N-(1-((4-(tert-butyl)phenyl)amino)-1-oxopropan-2-yl) cyclopropane-1-carboxamide], for which the IC50 on human Cav3.2 channel [1] is 100 to 1000 nM. In addition, the inhibition at 0.3 µM at human Cav3.2 channel [2] (setting [4]) came out at 30%.

For the compound `CCCc1ccc(NC(=O)C(C)NC(=O)C2CC2c2nc3ccccc3[nH]2)cc1` (single isomer, unassigned) [Example 1A, Trans-2-(1H-benzo[d]imidazol-2-yl)-N-(1-oxo-1-((4-propylphenyl)amino)propan-2-yl) cyclopropane-1-carboxamide], on human Cav3.2 channel [1], the IC50 fell in the range of 100 to 1000 nM. Besides, on human Cav3.2 channel [2] (setting [4]), the inhibition at 0.3 µM turned out to be 86%.

As to `O=C(NC1(C(=O)Nc2cccc(C(F)(F)F)c2)CC1)[C@H]1C[C@@H]1c1nc2ccccc2[nH]1` [Example 22, 1-((1S, 2S)-2-(1H-Benzo[d]imidazol-2-yl)cyclopropane-1-carboxamido)-N-(3-(trifluoromethyl)phenyl) cyclopropane-1-carboxamide], the IC50 at human Cav3.2 channel [1] was not above 100 nM. For the same compound, the inhibition at 0.3 µM on human Cav3.2 channel [2] (setting [4]) stood at 95%.

Regarding `O=C(CNC(=O)[C@@H]1C[C@H]1c1nc2ccccc2[nH]1)Nc1ccc(C(F)(F)F)cc1` (relative stereo) [Example 20, Trans-2-(1H-benzo[d]imidazol-2-yl)-N-(2-oxo-2-((4-(trifluoromethyl)phenyl)amino)ethyl) cyclopropane-1-carboxamide], the IC50 on human Cav3.2 channel [1] lay in the range of 100 to 1000 nM. In addition, the inhibition at 0.3 µM on human Cav3.2 channel [2] (setting [4]) came out at 39%. For the same compound, the inhibition at 3 µM on human Cav3.2 channel [2] is 32%.

With `O=C(NC1(C(=O)Nc2ccc(OC(F)(F)F)cc2)CC1)[C@H]1C[C@@H]1c1nc2ccccc2[nH]1` [Example 24, 1-((1S, 2S)-2-(1H-Benzo[d]imidazol-2-yl)cyclopropane-1-carboxamido)-N-(4-(trifluoromethoxy)phenyl) cyclopropane-1-carboxamide], on human Cav3.2 channel [1], the IC50 was not above 100 nM. The inhibition at 0.3 µM at human Cav3.2 channel [2] (setting [4]) turned out to be 68%.

`C[C@@H](NC(=O)C1CC1c1nc2ccccc2[nH]1)c1cnc(OCC(F)(F)F)cn1` (stereo partly drawn) [RQ-00311651, reference compound]: at human Cav3.2 channel [2] (setting [4]), the inhibition at 0.3 µM was 17%. In addition, the inhibition at 3 µM at human Cav3.2 channel [2] was 14%.

In the case of `O=C(NC1(C(=O)Nc2ccc(C(F)(F)F)cc2)CC1)[C@@H]1C[C@H]1c1nc2ccccc2[nH]1` (relative stereo) [Example 21, Trans-1-(2-(1H-benzo[d]imidazol-2-yl)cyclopropane-1-carboxamido)-N-(4-(trifluoromethyl)phenyl) cyclopropane-1-carboxamide], the IC50 at human Cav3.2 channel [1] lay within 100 to 1000 nM. Besides, at human Cav3.2 channel [2] (setting [4]), the inhibition at 0.3 µM was 51%. Also, the inhibition at 3 µM at human Cav3.2 channel [2] turned out to be 41%.
